{"source": "patent US20080153792A1", "about": "“Drug Identification and Treatment Method” (priority 2006, published 2008)", "key": {"[1]": {"assay": "metabolic stability in liver microsomes, species not stated", "format": "in vitro ADME", "settings": "compared with androst-5-ene-3β,17β-diol reference compound", "experimental": "The protocol was performed as follows. […] (2) Set up samples as follows. […] (4) The internal standard/acetonitrile solution."}, "[2]": {"system": "BALB/c mice, OVA sensitized and challenged", "assay": "ovalbumin (OVA) sensitized mouse model of asthma", "format": "in vivo", "settings": "for IL-13: s.c. once daily, dexamethasone 5 mg/kg, compound 1 mg/mouse", "experimental": "BALB/c mice were sensitized by intraperitoneal injection with OVA (in alum adjuvant) on days 1, and 12. Airways were challenged with OVA on days 28 and 30 by delivery of OVA to the lung, or with saline. […] The remaining animals were divided into 6 groups (6 mice per group). Groups of the mice were treated once daily by subcutaneous injection as follows. Group 1 vehicle control (0.1% carboxymethyl cellulose, 0.9% saline, 2% tween 80, 0.05% phenol). Group 2 dexamethazone (5 mg/kg). Group 3 3α,16α,17α-trihydroxyandrostane (1 mg/mouse). Three animals in groups 1-3 were sacrificed on day 35 at 1 hr after final treatment and the remaining 3 animals in groups 1-3 were sacrificed on day 38."}, "[3]": {"system": "CD1 male mice, carrageenan-λ induced pleurisy", "assay": "carrageenan-λ induced lung (pleural cavity) inflammation in mice", "format": "in vivo, mouse", "settings": "for number of neutrophils relative to untreated carrageenan-λ control (100%): 4 h after carrageenan"}, "[4]": {"system": "bone marrow-derived mast cells (BMMC)", "assay": "mast cell stimulus-coupled degranulation (glucuronidase release)", "format": "cell-based, mouse", "experimental": "In another protocol, a population of mast cells was cultivated from murine bone marrow as follows. Briefly, bone marrows from Balb/C mice were flushed from the femur using PBS and a 27 g needle. The cells were cultured in a mixture of ⅔ RPMI-1640 with 19% FBS and cells that secreted IL-3. The bone marrow cells were allowed to differentiate for 18-25 days in the IL-3-containing mixture before being used for experiments. Bone marrow cells cultured in this manner have a phenotype similar to mucosal mast cells and are referred to as bone marrow-derived mast cells (BMMC).\nThe homogeneity of the in vitro propagated mast cells was checked by conventional flow cytometry techniques and staining for cell-type specific markers. Between days 14 and 21 of propagation, mature mast cells were harvested and prepared for the test cultures. The objective was to assess of the effect of compounds such as dehydroepiandrosterone on mast cell stimulus-coupled degranulation. Prepared mast cells were dispensed into test culture wells at a density of 1×10^7 cells/mL. In control cultures, mast cells were induced to degranulate after cross linking of IgE receptors with IgE antigen-antibody complexes. […] There was no detectable degranulation of mast cells as measured by release of […] from cytosolic storage granules of the cells in the absence of the stimulus. […]"}, "[5]": {"system": "NF-κB", "assay": "NF-κB-bla THP-1 β-lactamase reporter assay", "format": "cell-based, human", "settings": "Homo sapiens, THP-1, read-out: IC50, this protocol"}}, "data": [{"smiles": "C[C@]12CC[C@H]3[C@@H](CCC4C[C@H](O)CC[C@@]43C)[C@@H]1C[C@@H](O)[C@H]2O", "note": "(stereo partly drawn) [3α,16α,17α-trihydroxyandrostane]", "values": [{"measurement": "metabolism by microsomes", "setting": "[1]", "value": "metabolized by microsomes at a rate similar to the androst-5-ene-3β,17β-diol reference compound"}, {"measurement": "IL-13", "setting": "[2]; day 35", "value": 195, "unit": "pg/mL"}, {"measurement": "IL-5 in lung tissue", "setting": "[2]; day 38", "value": 90, "unit": "pg/mL"}, {"measurement": "IL-13", "setting": "[2]; day 38", "value": 210, "unit": "pg/mL"}, {"measurement": "number of neutrophils relative to untreated carrageenan-λ control (100%)", "setting": "[3]; 0.001 mg s.c. 24 h and 1 h before carrageenan-λ", "value": 103, "unit": "%"}, {"measurement": "number of neutrophils relative to untreated carrageenan-λ control (100%)", "setting": "[3]; 0.01 mg s.c. 24 h and 1 h before carrageenan-λ", "value": 45, "unit": "%"}, {"measurement": "number of neutrophils in the pleura", "setting": "[3]; 0.1 mg and 0.01 mg doses s.c.", "value": "significant reduction"}, {"measurement": "number of neutrophils relative to untreated carrageenan-λ control (100%)", "setting": "[3]; 0.1 mg s.c. 24 h and 1 h before carrageenan-λ", "value": 30, "unit": "%"}]}, {"smiles": "C[C@]12CC[C@H](O)CC1=CC[C@@H]1[C@@H]2CC[C@]2(C)C(=O)CC[C@@H]12", "note": "[dehydroepiandrosterone]", "values": [{"measurement": "inhibition at 100 µM", "setting": "[4]; Mus musculus, BMMC, 100 μM, 5 to 10 minutes before activation with anti-IgE antigen-antibody complexes", "value": "~70", "unit": "%"}, {"measurement": "degranulation by compound alone", "setting": "[4]; no stimulus", "value": "no measurable degranulation"}, {"measurement": "IC50", "setting": "[5]", "value": "> 10", "unit": "µM"}]}]}
